Here are results for four compounds from patent publication US11149022B2, “Antagonists of the muscarinic acetylcholine receptor M4” (Vanderbilt University, priority 2017, dated 2021).

SMILES strings stand for the structures.

For orientation: IC50 means the concentration that gives 50% inhibition.

In assay [1] the test system is haloperidol-induced catalepsy. In words: haloperidol-induced catalepsy, a model of parkinsonian motor disability. Type of assay: in vivo, mice. An excerpt: Furthermore, haloperidol-induced catalepsy, a model of parkinsonian motor disability, is reduced in M4 knockout mice as compared to wild-type controls. […] The reversal by scopolamine was uncommonly robust and more pronounced than we observe with agents targeting a number of other targets being evaluated for potential antiparkinsonian effects, including metabotropic glutamate (mGlu) receptors mGlu4 or mGlu5, A2A adenosine receptors, and NMDA receptors. […] Taken together with the extensive studies of M4 modulation of basal ganglia and motor function, these studies provide compelling evidence that M4 is the dominant mAChR subtype involved in the antiparkinsonian effects of non-selective mAChR antagonists and provide support for discovery and development of selective M4 antagonists for treatment of neurodegenerative disease such as PD, dystonia, tardive dyskinesia and other movement disorders.

In the next assay the test system is locomotor activity. As to conditions: M4 knockout mice, but not the other four mAChR subtypes (M1-3,5); cited from earlier work.
For a further assay, the target named is T1, Human M4 (Homo sapiens, UniProt P08173).
T1 construct: expressed in transfected cells; host or cells: CHO-K1 (ATCC), stably co-expressing chimeric G protein Gqi5
T1 sequence (P08173 1-479): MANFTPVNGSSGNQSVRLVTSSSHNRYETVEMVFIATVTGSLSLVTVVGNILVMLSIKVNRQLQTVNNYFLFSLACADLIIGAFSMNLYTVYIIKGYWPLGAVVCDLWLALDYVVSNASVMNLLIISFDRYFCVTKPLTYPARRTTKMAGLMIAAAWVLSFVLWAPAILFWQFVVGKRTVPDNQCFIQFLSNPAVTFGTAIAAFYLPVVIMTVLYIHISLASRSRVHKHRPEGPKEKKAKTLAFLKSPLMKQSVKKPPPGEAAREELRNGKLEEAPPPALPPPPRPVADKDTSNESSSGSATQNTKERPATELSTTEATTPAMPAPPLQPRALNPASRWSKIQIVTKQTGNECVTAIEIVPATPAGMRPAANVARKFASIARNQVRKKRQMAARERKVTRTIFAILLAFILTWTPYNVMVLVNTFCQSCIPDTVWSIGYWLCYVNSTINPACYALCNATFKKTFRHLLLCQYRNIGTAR
Kind of assay: mAChR M4 cell-based functional assay (calcium flux, antagonist mode). The note with it: for remaining activity at 30 µM: % ACh maximum at 30 μM, read-out: Emin; for IC50: M4/Gqi5/CHO-K1 cells, concentration-dependent decrease of the EC80 acetylcholine response. (In general: Calcium assays in cells follow changes in intracellular calcium, usually with a dye or a luminescent sensor.)

As for `CN1[C@@H]2C[C@@H](OC(=O)[C@H](CO)c3ccccc3)C[C@H]1[C@@H]1O[C@@H]12` [scopolamine], the “reduction of catalepsy induced by haloperidol” value in assay [1] (M4 KO mice) is listed as “ineffective”. Further, the “reversal of catalepsy induced by haloperidol” value in assay [1] (WT mice) is on record as “completely reversed”. In addition, in the assay on locomotor activity, the locomotor-activating effects entry is recorded as “dramatically reduced”.
As to `Fc1ccc(Cl)c(-c2ccc(NCC3CC4(CCN(CC5CCOCC5)CC4)C3)nn2)c1` [Compound 44, 6-(2-chloro-5-fluoro-phenyl)-N-[[7-(tetrahydropyran-4-ylmethyl)-7-azaspiro[3.5]nonan-2-yl]methyl]pyridazin-3-amine], on Human M4, the remaining activity at 30 µM was 4.66% and the half-maximal inhibitory concentration (IC50) was found to be 730 nM.
The like results for `COc1cccc(CN2CCC3(CC2)CC(CNc2ccc(-c4cc(F)ccc4Cl)nn2)C3)n1` [Compound 48, 6-(2-chloro-5-fluoro-phenyl)-N-[[7-[(6-methoxy-2-pyridyl)methyl]-7-azaspiro[3.5]nonan-2-yl]methyl]pyridazin-3-amine] were, in that order, 4.48% and 1740 nM.
For `Cc1cnn(C)c1-c1ccc(OC2CC3(CCN(CCC(C)(C)C)CC3)C2)nn1` [Compound 14, 7-(3,3-Dimethylbutyl)-2-[6-(2,4-dimethylpyrazol-3-yl)pyridazin-3-yl]oxy-7-azaspiro[3.5]nonane], at Human M4, the remaining activity at 30 µM amounted to 3.92% and the IC50 came out at 240 nM.
